The record followed here is PubChem BioAssay (NCI).

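In this assay, cells in 96-well plates receive the compound at five concentrations for 48 hours. Endpoints are linearly interpolated between the surrounding concentrations. GI50 is the concentration that inhibits growth by half. TGI denotes the concentration required for complete inhibition of growth.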 Bounds are passed on as bounds.

Some test systems named below: HCT-15 colon; OVCAR-4 ovarian; RPMI-8226 leukemia; SK-MEL-5 melanoma; M14 melanoma; SNB-19 CNS; ACHN renal; COLO 205 colon; RXF 393 renal; NCI-H23 lung.
Common to all, as to assay: NCI anticancer screen, dose series, 48 h

In the case of `Cc1[nH]nc(C(F)(F)F)c1Cc1sc2c(c1C(=O)N1C[C@](C)(O)CO1)c(=O)n(C)c(=O)n2C(C)C`, the GI50 in the assay with HCT-15 colon, in the assay on OVCAR-4 ovarian, with RPMI-8226 leukemia, in the assay on SK-MEL-5 melanoma, with M14 melanoma and in the assay on SNB-19 CNS was > 100 µM throughout. In addition, the GI50 with ACHN renal, with COLO 205 colon, in the assay on RXF 393 renal and in the assay on NCI-H23 lung was > 100 µM in each case. Further, the TGI with HCT-15 colon, in the assay on OVCAR-4 ovarian, with RPMI-8226 leukemia, with SK-MEL-5 melanoma, in the assay with M14 melanoma and in the assay with SNB-19 CNS was > 100 µM in each case. In addition, the TGI with ACHN renal, with COLO 205 colon, in the assay with RXF 393 renal and in the assay on NCI-H23 lung was > 100 µM each time.
In the case of `Clc1cnc(Nc2ccc(OCCN3CCCC3)cc2)nc1NCc1ccco1`, the GI50 is 2.72 µM with HCT-15 colon; 2.86 µM in the assay with OVCAR-4 ovarian; 2.25 µM with RPMI-8226 leukemia; 1.62 µM in the assay on SK-MEL-5 melanoma; 2.46 µM in the assay with M14 melanoma; 3.51 µM in the assay with SNB-19 CNS. For the same molecule, the GI50 in the assay on ACHN renal is 2.37 µM; in the assay with COLO 205 colon it was 1.71 µM; with RXF 393 renal it was 1.25 µM; in the assay on NCI-H23 lung, 1.84 µM. The TGI in the assay with HCT-15 colon came to 11.8 µM; in the assay with OVCAR-4 ovarian, 13.9 µM; with RPMI-8226 leukemia, 5.49 µM; in the assay with SK-MEL-5 melanoma, 3.42 µM; with M14 melanoma, 9.55 µM; in the assay with SNB-19 CNS it was 13.5 µM. Also, the TGI was found to be 26.4 µM in the assay on ACHN renal, 4.05 µM with COLO 205 colon, 3.24 µM with RXF 393 renal and 5.75 µM in the assay on NCI-H23 lung.
Regarding `CCCCCCCCN(CCCCCCCC)CC(O)c1cc(-c2ccccc2)nc2ccc(OC)cc12` (centres undefined), the GI50 in the assay on HCT-15 colon is 23.2 µM; with OVCAR-4 ovarian it was 51 µM; in the assay on RPMI-8226 leukemia, 10.3 µM; with SK-MEL-5 melanoma, 34.4 µM; in the assay with M14 melanoma, 20.3 µM; in the assay on SNB-19 CNS it was 54.7 µM. Moreover, the GI50 in the assay with ACHN renal was > 100 µM; in the assay with COLO 205 colon it was 22.1 µM; in the assay on RXF 393 renal, 43.7 µM; in the assay on NCI-H23 lung, 43.4 µM. Also, the TGI with HCT-15 colon is > 100 µM; in the assay with OVCAR-4 ovarian it was > 100 µM; in the assay on RPMI-8226 leukemia it was 44.3 µM; in the assay on SK-MEL-5 melanoma, > 100 µM; in the assay with M14 melanoma, 68.5 µM; in the assay on SNB-19 CNS, > 100 µM. Besides, the TGI in the assay with ACHN renal, in the assay on COLO 205 colon, in the assay with RXF 393 renal and in the assay with NCI-H23 lung was > 100 µM each time.
On to `COC(=O)NC(Cc1ccccc1)NC(=O)OC(C)(C)C` (centres undefined), for which the TGI with HCT-15 colon, in the assay on OVCAR-4 ovarian, with RPMI-8226 leukemia, in the assay on SK-MEL-5 melanoma, in the assay on M14 melanoma and in the assay with SNB-19 CNS was > 100 µM in each case. The TGI in the assay with ACHN renal, in the assay on COLO 205 colon, in the assay on RXF 393 renal and in the assay on NCI-H23 lung was > 100 µM each time.
`COc1ccc(C(=O)/C=C/c2ccc(OCc3cccc(C(F)(F)F)c3)c(OC)c2)cc1OC`: the GI50 in the assay on HCT-15 colon is 42 µM; with OVCAR-4 ovarian, 51.7 µM; in the assay on RPMI-8226 leukemia, 25.3 µM; in the assay on SK-MEL-5 melanoma, 38.4 µM; in the assay on M14 melanoma, 70.9 µM; in the assay on SNB-19 CNS, 78.9 µM. The GI50 in the assay with ACHN renal was 52.8 µM; in the assay on COLO 205 colon, 61.6 µM; in the assay with RXF 393 renal, 68.3 µM; in the assay on NCI-H23 lung it was 46.7 µM. Besides, the TGI in the assay on HCT-15 colon was > 1000 µM; in the assay on OVCAR-4 ovarian, > 1000 µM; with RPMI-8226 leukemia, 94 µM; in the assay with SK-MEL-5 melanoma it was 301 µM; in the assay with M14 melanoma, > 1000 µM; in the assay on SNB-19 CNS, > 1000 µM. For the same molecule, the TGI in the assay with ACHN renal is > 1000 µM; in the assay with COLO 205 colon, > 1000 µM; with RXF 393 renal it was 562 µM; in the assay on NCI-H23 lung, > 1000 µM.
On to `COC(=O)C1=C(C)NC(C)=C(C(=O)OC)C1c1cccc(/[N+]([O-])=C/c2ccccc2)c1`, for which the TGI is 44.9 µM with HCT-15 colon; 30.2 µM with OVCAR-4 ovarian; > 100 µM in the assay with RPMI-8226 leukemia; > 100 µM in the assay with SK-MEL-5 melanoma; 35 µM in the assay on M14 melanoma; > 100 µM with SNB-19 CNS. Moreover, the TGI with ACHN renal is 31.6 µM; with COLO 205 colon, 30.5 µM; with RXF 393 renal, 30.3 µM; in the assay with NCI-H23 lung, > 100 µM.
Take `CC12CCC(C1)C(C)(C)C2OC(=O)c1ccccc1N` (centres undefined): the TGI with HCT-15 colon was found to be 33.7 µM; in the assay on RPMI-8226 leukemia, 16.9 µM; in the assay with SK-MEL-5 melanoma, 31 µM; in the assay on M14 melanoma it was 31.6 µM; in the assay on SNB-19 CNS, 31.9 µM; in the assay with ACHN renal, 33 µM. For the same molecule, the TGI amounted to 29 µM with COLO 205 colon, 25.7 µM in the assay on RXF 393 renal and 31.2 µM in the assay with NCI-H23 lung.
Turning to `COC(=O)C1=C(C)NC(=S)NC1c1ccc(N(CCCl)CCCl)cc1Cl` (centres undefined), the TGI in the assay on HCT-15 colon is > 66.5 µM; with OVCAR-4 ovarian, > 84.1 µM; in the assay on RPMI-8226 leukemia it was > 4.64 µM; in the assay on SK-MEL-5 melanoma, 20.1 µM; in the assay with M14 melanoma, > 87.9 µM; with SNB-19 CNS, > 100 µM. Besides, the TGI is > 75.9 µM in the assay with ACHN renal, 59.7 µM in the assay with COLO 205 colon, > 81.2 µM in the assay on RXF 393 renal and > 62.1 µM in the assay with NCI-H23 lung.
As for `COc1cc2ncnc(Oc3ccc(NC(=O)Nc4ccc(CN5CCOCC5)c(C(F)(F)F)c4)c4ccccc34)c2cc1OC`, the GI50 in the assay on HCT-15 colon was 1.04 µM; in the assay with OVCAR-4 ovarian it was 0.124 µM; with RPMI-8226 leukemia it was 0.297 µM; in the assay on SK-MEL-5 melanoma it was 0.499 µM; in the assay with M14 melanoma it was 0.935 µM; in the assay on SNB-19 CNS it was 2.35 µM. In addition, the GI50 was 0.303 µM in the assay on ACHN renal, 0.558 µM in the assay on COLO 205 colon, 0.692 µM in the assay with RXF 393 renal and 0.785 µM with NCI-H23 lung. For the same molecule, the TGI in the assay with HCT-15 colon was 4.7 µM; in the assay with OVCAR-4 ovarian, 8.69 µM; in the assay with RPMI-8226 leukemia it was 2.02 µM; in the assay on SK-MEL-5 melanoma, 2.34 µM; in the assay on M14 melanoma, 4.14 µM; with SNB-19 CNS, 12.2 µM. The TGI in the assay with ACHN renal was 1.41 µM; with COLO 205 colon it was 3.91 µM; in the assay on RXF 393 renal, 5.69 µM; in the assay on NCI-H23 lung it was 4.16 µM.
